Test results as given in paper PMC7982320 (Pharmacology Research & Perspectives, 2021).
“Also recorded” adds a separate entry of the source.

How the values were obtained:
Format in all cases: in vitro ADME
human OAT1 [1] = biological target: T1, human OAT1 (Homo sapiens, UniProt Q4U2R8); assay: Uptake transporter substrate assay; conditions: OAT1 UPT; for Maximum fold accumulation over control: maximum seen at 2.5 µM and 20 min, n = 3
T1 sequence (Q4U2R8 1-563): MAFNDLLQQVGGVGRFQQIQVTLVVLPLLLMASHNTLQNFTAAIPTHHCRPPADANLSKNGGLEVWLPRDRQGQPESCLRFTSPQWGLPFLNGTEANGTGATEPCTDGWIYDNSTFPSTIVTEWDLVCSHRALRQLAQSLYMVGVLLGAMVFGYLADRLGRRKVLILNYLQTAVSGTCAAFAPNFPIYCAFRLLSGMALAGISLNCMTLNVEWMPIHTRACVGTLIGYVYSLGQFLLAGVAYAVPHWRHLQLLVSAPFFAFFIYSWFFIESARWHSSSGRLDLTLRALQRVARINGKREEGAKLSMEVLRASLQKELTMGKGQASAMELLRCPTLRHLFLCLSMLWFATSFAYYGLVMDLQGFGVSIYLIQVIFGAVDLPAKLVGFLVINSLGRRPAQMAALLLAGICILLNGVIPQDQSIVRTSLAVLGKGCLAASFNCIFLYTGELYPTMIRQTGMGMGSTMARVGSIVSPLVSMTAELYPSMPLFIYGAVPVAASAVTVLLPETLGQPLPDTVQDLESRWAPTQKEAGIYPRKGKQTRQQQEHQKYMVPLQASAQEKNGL

human OATP1B3 = biological target: T2, human OATP1B3 (Homo sapiens, UniProt Q9NPD5); assay: Uptake transporter substrate assay; conditions: OATP1B3 UPT; for Maximum fold accumulation over control: maximum seen at 1 µM and 20 min, n = 3
T2 sequence (Q9NPD5 1-702): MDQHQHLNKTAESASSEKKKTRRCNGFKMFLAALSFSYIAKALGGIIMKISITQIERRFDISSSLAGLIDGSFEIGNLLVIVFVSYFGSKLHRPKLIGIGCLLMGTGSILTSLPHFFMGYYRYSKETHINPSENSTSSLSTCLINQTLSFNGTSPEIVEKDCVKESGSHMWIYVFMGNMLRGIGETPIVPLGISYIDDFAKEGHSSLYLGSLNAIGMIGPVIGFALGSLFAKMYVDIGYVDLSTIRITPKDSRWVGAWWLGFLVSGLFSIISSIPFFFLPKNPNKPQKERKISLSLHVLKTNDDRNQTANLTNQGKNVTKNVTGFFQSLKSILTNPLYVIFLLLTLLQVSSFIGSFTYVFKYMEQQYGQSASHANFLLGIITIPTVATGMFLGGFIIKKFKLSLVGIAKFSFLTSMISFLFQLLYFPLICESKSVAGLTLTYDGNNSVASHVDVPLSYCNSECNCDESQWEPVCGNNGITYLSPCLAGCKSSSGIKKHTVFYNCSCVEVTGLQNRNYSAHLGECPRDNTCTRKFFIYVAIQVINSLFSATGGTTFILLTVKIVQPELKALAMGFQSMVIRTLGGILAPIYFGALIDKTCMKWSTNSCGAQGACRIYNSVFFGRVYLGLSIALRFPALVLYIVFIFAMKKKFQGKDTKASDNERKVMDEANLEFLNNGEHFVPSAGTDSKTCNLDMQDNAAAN

human OAT3 [2] = biological target: T3, human OAT3 (Homo sapiens, UniProt Q8TCC7); assay: Uptake transporter substrate assay; conditions: OAT3 UPT; for Maximum fold accumulation over control: maximum seen at 5 µM and 20 min, n = 3
T3 sequence (Q8TCC7 1-542): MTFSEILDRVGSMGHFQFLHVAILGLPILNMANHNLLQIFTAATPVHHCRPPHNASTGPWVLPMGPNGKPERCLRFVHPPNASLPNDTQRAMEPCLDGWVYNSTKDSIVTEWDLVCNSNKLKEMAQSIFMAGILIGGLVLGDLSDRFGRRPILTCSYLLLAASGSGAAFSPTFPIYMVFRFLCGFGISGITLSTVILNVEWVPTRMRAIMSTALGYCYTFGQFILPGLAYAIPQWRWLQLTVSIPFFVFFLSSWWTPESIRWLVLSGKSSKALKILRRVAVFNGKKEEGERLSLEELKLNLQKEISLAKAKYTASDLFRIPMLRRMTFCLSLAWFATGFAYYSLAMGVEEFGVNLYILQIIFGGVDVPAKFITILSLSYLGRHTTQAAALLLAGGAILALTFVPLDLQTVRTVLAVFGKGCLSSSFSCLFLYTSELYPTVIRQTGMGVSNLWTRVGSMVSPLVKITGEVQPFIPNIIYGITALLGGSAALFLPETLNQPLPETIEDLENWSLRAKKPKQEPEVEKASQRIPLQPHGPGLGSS

human OAT3 [3] = biological target: T3, human OAT3; assay: Transporter inhibition, uptake assay
human BSEP = human BSEP (Homo sapiens, UniProt O95342); assay: Transporter inhibition, vesicular transport assay
human BCRP = biological target: T4, human BCRP (Homo sapiens, UniProt Q9UNQ0); assay: Transporter inhibition, vesicular transport assay
T4 sequence (Q9UNQ0 1-655): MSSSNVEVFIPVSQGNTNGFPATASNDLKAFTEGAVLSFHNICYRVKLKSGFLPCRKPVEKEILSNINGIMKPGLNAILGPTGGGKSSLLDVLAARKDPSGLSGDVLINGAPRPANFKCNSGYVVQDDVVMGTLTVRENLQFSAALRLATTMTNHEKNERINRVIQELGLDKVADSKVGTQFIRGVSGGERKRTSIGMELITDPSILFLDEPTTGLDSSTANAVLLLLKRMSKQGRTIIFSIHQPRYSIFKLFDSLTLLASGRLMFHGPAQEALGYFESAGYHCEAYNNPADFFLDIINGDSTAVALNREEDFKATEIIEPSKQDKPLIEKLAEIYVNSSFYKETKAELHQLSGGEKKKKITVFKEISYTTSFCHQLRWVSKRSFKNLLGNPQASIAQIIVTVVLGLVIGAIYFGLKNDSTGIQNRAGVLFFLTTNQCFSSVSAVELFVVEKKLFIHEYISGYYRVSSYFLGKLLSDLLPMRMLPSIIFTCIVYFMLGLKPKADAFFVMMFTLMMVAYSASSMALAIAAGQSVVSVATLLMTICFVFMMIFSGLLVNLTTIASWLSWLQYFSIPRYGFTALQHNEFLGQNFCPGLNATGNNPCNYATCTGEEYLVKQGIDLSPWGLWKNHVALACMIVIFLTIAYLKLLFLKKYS

human OAT1 [4] = biological target: T1, human OAT1; assay: Transporter inhibition, uptake assay
[5] = listed as 6β‐hydroxy‐21‐desacetyl deflazacort

human BSEP, sequence (O95342 whole entry): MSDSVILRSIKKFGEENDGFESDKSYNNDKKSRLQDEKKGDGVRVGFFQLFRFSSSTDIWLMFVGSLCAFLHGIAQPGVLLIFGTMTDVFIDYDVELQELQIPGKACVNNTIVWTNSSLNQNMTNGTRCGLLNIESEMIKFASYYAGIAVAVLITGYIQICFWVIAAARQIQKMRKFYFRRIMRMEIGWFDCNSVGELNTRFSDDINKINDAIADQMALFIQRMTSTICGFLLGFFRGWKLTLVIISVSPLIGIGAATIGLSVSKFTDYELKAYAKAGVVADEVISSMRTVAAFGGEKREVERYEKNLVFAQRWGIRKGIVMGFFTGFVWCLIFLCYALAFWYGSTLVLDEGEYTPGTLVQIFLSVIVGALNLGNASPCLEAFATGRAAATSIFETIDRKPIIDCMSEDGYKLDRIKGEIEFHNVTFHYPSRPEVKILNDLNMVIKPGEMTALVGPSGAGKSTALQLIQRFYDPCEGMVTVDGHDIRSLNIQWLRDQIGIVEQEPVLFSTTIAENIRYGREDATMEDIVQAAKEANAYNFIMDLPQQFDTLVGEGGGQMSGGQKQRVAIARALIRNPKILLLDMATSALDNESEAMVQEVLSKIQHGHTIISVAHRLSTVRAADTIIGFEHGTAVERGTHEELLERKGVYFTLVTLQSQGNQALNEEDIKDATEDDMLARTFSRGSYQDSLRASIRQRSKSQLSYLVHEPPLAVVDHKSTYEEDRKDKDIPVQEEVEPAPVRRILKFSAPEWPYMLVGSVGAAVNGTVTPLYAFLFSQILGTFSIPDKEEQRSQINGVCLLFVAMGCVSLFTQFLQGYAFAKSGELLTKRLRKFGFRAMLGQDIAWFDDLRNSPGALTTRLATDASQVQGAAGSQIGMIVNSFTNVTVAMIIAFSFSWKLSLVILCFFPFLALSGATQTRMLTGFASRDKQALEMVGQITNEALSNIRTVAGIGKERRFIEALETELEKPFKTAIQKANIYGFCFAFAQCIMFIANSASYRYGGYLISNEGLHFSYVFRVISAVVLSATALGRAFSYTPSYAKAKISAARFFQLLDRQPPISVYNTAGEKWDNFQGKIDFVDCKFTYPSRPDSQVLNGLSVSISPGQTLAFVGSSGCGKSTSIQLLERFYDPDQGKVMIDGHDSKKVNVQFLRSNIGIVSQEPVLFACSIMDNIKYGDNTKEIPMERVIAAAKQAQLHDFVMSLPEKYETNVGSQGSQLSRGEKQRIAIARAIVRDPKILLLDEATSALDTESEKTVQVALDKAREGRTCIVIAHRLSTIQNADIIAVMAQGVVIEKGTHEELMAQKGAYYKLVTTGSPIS

| Compound | Maximum fold accumulation over control (human OAT1 [1]) | Maximum fold accumulation over control (human OATP1B3) | Substrate potential (human OAT3 [2]) | Fold accumulation over control, in the presence of OAT3 inhibitor (human OAT3 [2]; with inhibitor probenecid) | Maximum fold accumulation over control (human OAT3 [2]) | Substrate potential (human OAT1 [1]) | Substrate potential (human OAT1 [1]; [5]) | inhibitory interaction with transporter (human OAT3 [3]; OAT3, up to 50 µM) | Maximum inhibition at 50 µM (human OAT3 [3]; OAT3 UPT, n = 3) | Substrate potential (human OATP1B3) | Substrate potential (human OATP1B3; [5]) | Maximum inhibition at 50 µM (human BSEP; BSEP VT, n = 3) | inhibitory interaction with transporter (human BSEP; BSEP, up to 50 µM) | Maximum inhibition at 50 µM (human BCRP; BCRP VT, n = 3) | inhibitory interaction with transporter (human BCRP; BCRP, up to 50 µM) | Fold accumulation over control, without inhibitor (inhibitor experiment) (human OAT3 [2]; before inhibitor‐reduced accumulation) | Substrate potential (human OAT3 [2]; [5]) | inhibitory interaction with transporter (human OAT1 [4]; OAT1, up to 50 µM) | Maximum inhibition at 50 µM (human OAT1 [4]; OAT1 UPT, n = 3) |
| --- | --- | --- | --- | --- | --- | --- | --- | --- | --- | --- | --- | --- | --- | --- | --- | --- | --- | --- | --- |
| [2’-^14C]-6β-hydroxy-21-desacetyl-deflazacort [^14C‐6β‐OH‐21‐desDFZ] | < 2 fold | < 2 fold | is an OAT3 substrate in vitro | 1.08 fold | 2.71 fold | – | – | – | – | – | – | – | – | – | – | – | – | – | – |
| CC1=N[C@]2(C(=O)CO)[C@@H](C[C@H]3[C@@H]4C[C@@H](O)C5=CC(=O)C=C[C@]5(C)[C@H]4[C@@H](O)C[C@@]32C)O1 [6β‐OH‐21‐desDFZ, 6β‐Hydroxy‐21‐desacetyl deflazacort] | 1.15 at 2.5 µM and 20 min fold | 1.47 at 1 µM and 20 min fold | appeared to be an in vitro substrate; also recorded: in vitro substrate for human OAT3 | – | 2.71 fold | not a substrate | No | did not show interaction; also recorded: no inhibitory interaction | <20 % of control | not a substrate | No | 27 % of control | no inhibitory interaction | <20 % of control | no inhibitory interaction | 1.75 fold | Yes | did not show interaction; also recorded: no inhibitory interaction | <20 % of control |
